Data: the NIST ThermoML archive (doi:10.1016/j.jct.2004.07.008)

Assay: xn = mol fraction of the nth substance listed
Conditions: 100 kPa, Liquid

CCNCC [diethylamine] + O
mass density [kg/m3]
Conditions | 278.15 K | 288.15 K | 293.15 K | 298.15 K | 308.15 K
x1 = 0.0006 | 999.491 | 998.664 | 997.751 | 996.626 | 993.562
x1 = 0.0024 | 997.912 | 997.039 | 996.154 | 994.988 | 991.942
x1 = 0.0035 | 996.932 | 996.037 | 995.136 | 993.969 | 990.903
x1 = 0.0044 | 996.139 | 995.23 | 994.323 | 993.151 | 990.065
x1 = 0.0056 | 995.225 | 994.285 | 993.371 | 992.182 | 989.066
x1 = 0.0064 | 994.57 | 993.602 | 992.679 | 991.472 | 988.353
x1 = 0.0081 | 993.249 | 992.212 | 991.279 | 990.04 | 986.873
x1 = 0.0097 | 992.04 | 990.934 | 989.98 | 988.714 | 985.476
x1 = 0.0172 | 987.17 | 985.63 | 984.539 | 983.09 | 979.496
x1 = 0.0291 | 980.983 | 978.376 | 976.96 | 975.088 | 970.666
x1 = 0.04 | 976.381 | 972.612 | 970.596 | 968.411 | 962.812
x1 = 0.0799 | 957.078 | 949.316 | 945.543 | 941.882 | 936.416
x1 = 0.0962 | – | 939.288 | – | 932.747 | 927.169
x1 = 0.1023 | – | 935.289 | – | 928.614 | 923.171
x1 = 0.1157 | – | 927.131 | – | 918.262 | –
x1 = 0.1191 | 933.215 | 925.183 | 920.953 | 916.971 | 910.193
x1 = 0.1717 | 905.317 | 896.85 | 892.377 | 888.178 | 883.177
x1 = 0.229 | – | 871.09 | – | – | –
x1 = 0.2382 | 876.611 | 867.217 | 863.096 | 858.163 | 848.844
x1 = 0.2939 | 859.045 | – | 842.233 | 837.568 | 827.974
x1 = 0.3003 | 857.537 | 844.712 | 839.967 | 835.41 | 825.737
x1 = 0.3501 | – | 829.202 | 824.477 | 819.781 | 810.104
x1 = 0.3558 | 838.534 | – | 822.73 | 817.933 | 808.149
x1 = 0.3911 | – | – | – | 809.086 | –
x1 = 0.4057 | – | 814.027 | 809.021 | – | 794.354
x1 = 0.4407 | 815.342 | – | – | 795.926 | –
x1 = 0.4625 | 810.256 | 799.75 | 795.056 | 789.779 | 779.967
x1 = 0.4844 | 805.352 | – | – | 784.888 | –
x1 = 0.5091 | 799.695 | – | – | – | 769.213
x1 = 0.523 | – | – | 781.055 | – | 766.718
x1 = 0.5287 | – | – | – | 775.014 | –
x1 = 0.6144 | 779.133 | 768.288 | 763.538 | 759.804 | 748.753
x1 = 0.6304 | 775.979 | – | 760.21 | – | 745.249
x1 = 0.7017 | 763.313 | – | 747.769 | 742.589 | 732.049
x1 = 0.7022 | – | 752.772 | – | 742.461 | 732.247
x1 = 0.726 | – | – | 742.965 | – | –
x1 = 0.7549 | – | – | 738.917 | 733.676 | 723.048
x1 = 0.7771 | 751.837 | – | 735.541 | 730.331 | 719.687
x1 = 0.805 | 749.039 | 737.02 | 731.853 | 726.558 | –
x1 = 0.8523 | 741.596 | 729.358 | 724.287 | 718.777 | 708.199
x1 = 0.8755 | 735.261 | – | – | 715.631 | –
x1 = 0.8822 | – | 725.559 | 719.965 | 714.728 | –
x1 = 0.8941 | – | – | 718.394 | 713.135 | 702.403
x1 = 0.9019 | 732.413 | – | – | 712.05 | –
x1 = 0.931 | – | 718.71 | 713.312 | 708.033 | –
x1 = 0.941 | 726.848 | – | 712.088 | 706.818 | 696.061
x1 = 0.9589 | 724.66 | – | – | 704.314 | –
x1 = 0.9727 | – | – | 708.394 | 703.131 | 692.387
x1 = 0.979 | 721.447 | – | – | 701.729 | –
x1 = 1 | 719.94 | 709.52 | 704.59 | 698.97 | 688.29
